# pEC50: −log10 of the molar value. Calls of active or inactive are those of the source. The calls are words filed in the database; no cut-off is given here.
# Experiments:
# [1] = test system: Hepatitis B virus; assay: Antiviral activity against HBV ayw1 infected in human HepG2.2.15 cells; type: functional, organism-based; conditions: ayw1, HepG2.2.15
# [2] = Selectivity index, ratio of CC50 for cytotoxicity against human HepG2.2.15 cells to EC50 for antiviral activity against HBV ayw1 infected in human HepG2.2.15 cells; type: toxicity, cell-based; conditions: read-out: Ratio CC50/EC50
# [3] = Cytotoxicity against human HepG2.2.15 cells; type: toxicity, cell-based, HepG2 2.2.15
# [4] = (§1) Selectivity index, ratio of CC50 for cytotoxicity against African green monkey Vero cells infected with Pichinde virus AN 4763 by neutral red dye based analysis to EC50 for antiviral activity against Pichinde virus AN 4763 infected in African green monkey Vero cells by neutral red dye based analysis; type: toxicity, cell-based; conditions: read-out: Ratio CC50/EC50
# [5] = test system: Japanese encephalitis virus; assay: Antiviral activity against Japanese encephalitis virus SA 14 infected in African green monkey Vero 76 cells; type: functional, organism-based
# [6] = Cytotoxicity against African green monkey Vero cells infected in Pichinde virus AN 4763 by neutral red dye based analysis; type: toxicity, cell-based; conditions: chlorocebus sabaeus, Vero cells infected with Pichinde virus AN 4763
# [7] = Selectivity index, ratio of CC50 for cytotoxicity against African green monkey Vero 76 cells infected with Measles virus CC by visual analysis to EC50 for antiviral activity against Measles virus CC infected in African green monkey Vero 76 cells by visual analysis; type: toxicity, cell-based; conditions: read-out: Ratio CC50/EC50
# [8] = test system: Human betaherpesvirus 5; assay: Antiviral activity against Human betaherpesvirus 5 AD 169 infected in HFF cells; type: functional, organism-based
# [9] = test system: Rift Valley fever virus; assay: Antiviral activity against Rift Valley fever virus MP-12 infected in African green monkey Vero 76 cells; type: functional, organism-based
# [10] = test system: Lassa virus; assay: Antiviral activity against Lassa virus Josiah infected in African green monkey Vero cells; type: functional, organism-based; conditions: Mammarenavirus lassaense
# [11] = test system: Pichinde virus; assay: Antiviral activity against Pichinde virus AN 4763 infected in African green monkey Vero cells by visual analysis; type: functional, organism-based; conditions: AN 4763, Vero
# [12] = test system: Middle East respiratory syndrome-related coronavirus; assay: Antiviral activity against Middle East respiratory syndrome-related coronavirus EMC infected in African green monkey Vero 76 cells; type: functional, organism-based
# [13] = test system: Pichinde virus; assay: Antiviral activity against Pichinde virus AN 4763 infected in African green monkey Vero cells by neutral red dye based analysis; type: functional, organism-based; conditions: AN 4763, Vero
# [14] = test system: Measles morbillivirus; assay: Antiviral activity against Measles virus CC infected in African green monkey Vero 76 cells by visual analysis; type: functional, organism-based
# [15] = test system: Tacaribe virus; assay: Antiviral activity against Tacaribe virus TRVL11573 infected in African green monkey Vero cells; type: functional, organism-based; conditions: Mammarenavirus tacaribeense
# [16] = test system: Chikungunya virus; assay: Antiviral activity against Chikungunya virus S27 infected in African green monkey Vero 76 cells; type: functional, organism-based
# [17] = test system: Measles morbillivirus; assay: Antiviral activity against Measles virus CC infected in African green monkey Vero 76 cells by neutral red dye based analysis; type: functional, organism-based
# [18] = Cytotoxicity against African green monkey Vero 76 cells infected with Rift Valley fever virus MP-12 by visual analysis; type: toxicity, cell-based; conditions: chlorocebus sabaeus
# [19] = Selectivity index, ratio of CC50 for cytotoxicity against African green monkey Vero 76 cells by neutral red dye based analysis to EC50 for antiviral activity against Measles virus CC infected in African green monkey Vero 76 cells by neutral red dye based analysis; type: toxicity, cell-based; conditions: read-out: Ratio CC50/EC50
# [20] = test system: Tacaribe virus; assay: Antiviral activity against Tacaribe virus TRVL11573 infected in African green monkey Vero cells by neutral red dye based analysis; type: functional, organism-based; conditions: Mammarenavirus tacaribeense
# [21] = Cytotoxicity against African green monkey Vero cells infected with Tacaribe virus TRVL11573 by visual analysis; type: toxicity, cell-based; conditions: chlorocebus sabaeus
# [22] = Cytotoxicity against African green monkey Vero 76 cells infected with Measles virus CC by neutral red dye based analysis; type: toxicity, cell-based; conditions: chlorocebus sabaeus
# [23] = test system: dengue virus type 2; assay: Antiviral activity against Dengue virus 2 New Guinea infected in human Huh-7 cells; type: functional, organism-based
# [24] = Selectivity index, ratio of CC50 for cytotoxicity against African green monkey Vero cells infected with Pichinde virus AN 4763 by visual analysis to EC50 for antiviral activity against Pichinde virus AN 4763 infected in African green monkey Vero cells by visual analysis; type: toxicity, cell-based; conditions: read-out: Ratio CC50/EC50
# [25] = test system: Rift Valley fever virus; assay: Antiviral activity against Rift Valley fever virus MP-12 infected in African green monkey Vero 76 cells by visual analysis; type: functional, organism-based; conditions: MP-12, Vero 76
# [26] = as §1, with “Tacaribe” for “Pichinde”, “TRVL11573” for “AN 4763”; type: toxicity, cell-based; conditions: read-out: Ratio CC50/EC50
# [27] = test system: Tacaribe virus; assay: Antiviral activity against Tacaribe virus TRVL11573 infected in African green monkey Vero cells by visual analysis; type: functional, organism-based; conditions: Mammarenavirus tacaribeense
# [28] = Cytotoxicity against African green monkey Vero 76 cells infected with Measles virus CC by visual analysis; type: toxicity, cell-based; conditions: chlorocebus sabaeus
# [29] = test system: Venezuelan equine encephalitis virus; assay: Antiviral activity against Venezuelan equine encephalitis virus TC-83 infected in African green monkey Vero 76 cells; type: functional, organism-based
# [30] = Selectivity index, ratio of CC50 for cytotoxicity against African green monkey Vero cells infected with Tacaribe virus TRVL11573 by visual analysis to EC50 for antiviral activity against Tacaribe virus TRVL11573 infected in African green monkey Vero cells by visual analysis; type: toxicity, cell-based; conditions: read-out: Ratio CC50/EC50
# [31] = test system: Punta Toro virus; assay: Antiviral activity against Punta Toro virus Adames infected in African green monkey Vero 76 cells; type: functional, organism-based
# [32] = test system: Rift Valley fever virus; assay: Antiviral activity against Rift Valley fever virus MP-12 infected in African green monkey Vero 76 cells by neutral red dye based analysis; type: functional, organism-based; conditions: MP-12, Vero 76
# [33] = Cytotoxicity against African green monkey Vero cells infected in Pichinde virus AN 4763 by visual analysis; type: toxicity, cell-based; conditions: chlorocebus sabaeus, Vero cells infected with Pichinde virus AN 4763
# [34] = Cytotoxicity against African green monkey Vero 76 cells infected with Rift Valley fever virus MP-12 by neutral red dye based analysis; type: toxicity, cell-based; conditions: chlorocebus sabaeus
# [35] = Cytotoxicity against African green monkey Vero cells infected with Tacaribe virus TRVL11573 by neutral red dye based analysis; type: toxicity, cell-based; conditions: chlorocebus sabaeus
# [36] = Selectivity index, ratio of CC50 for cytotoxicity against African green monkey Vero 76 cells infected with Rift Valley fever virus MP-12 by neutral red dye based analysis to EC50 for antiviral activity against Rift Valley fever virus MP-12 infected in African green monkey Vero 76 cells by neutral red dye based analysis; type: toxicity, cell-based; conditions: read-out: Ratio CC50/EC50
# [37] = Selectivity index, ratio of CC50 for cytotoxicity against African green monkey Vero 76 cells infected with Rift Valley fever virus MP-12 by visual analysis to EC50 for antiviral activity against Rift Valley fever virus MP-12 infected in African green monkey Vero 76 cells by visual analysis; type: toxicity, cell-based; conditions: read-out: Ratio CC50/EC50
# [38] = test system: Measles morbillivirus; assay: Antiviral activity against Measles virus; type: functional, organism-based
# [39] = test system: Yellow fever virus; assay: Antiviral activity against Yellow fever virus; type: functional, organism-based
# [40] = test system: Hepatitis B virus; assay: Antiviral activity against HBV; type: functional, organism-based
# [41] = test system: Human betaherpesvirus 5; assay: Antiviral activity against Human betaherpesvirus 5; type: functional, organism-based
# [42] = test system: Zaire ebolavirus; assay: Antiviral activity against Zaire ebolavirus infected in African green monkey Vero cells; type: functional, organism-based
# [43] = test system: Norovirus; assay: Antiviral activity against Norovirus Genogroup 1 infected in human HG23 cells; type: functional, organism-based; conditions: Genogroup 1, HG23
# [44] = Selectivity index, ratio of CC50 for cytotoxicity against African green monkey Vero cells infected with Marburgvirus Angola to EC50 for antiviral activity against Marburgvirus Angola infected in African green monkey Vero cells; type: toxicity, cell-based; conditions: read-out: Ratio CC50/EC50
# [45] = test system: Poliovirus 1; assay: Antiviral activity against Human poliovirus 1 Mahoney infected in African green monkey Vero 76 cells; type: functional, organism-based
# [46] = Cytotoxicity against African green monkey Vero cells infected with Zaire ebolavirus; type: toxicity, cell-based; conditions: chlorocebus sabaeus
# [47] = Selectivity index, ratio of CC50 for cytotoxicity against African green monkey Vero cells infected with Zaire ebolavirus to EC50 for antiviral activity against Zaire ebolavirus infected in African green monkey Vero cells; type: toxicity, cell-based; conditions: read-out: Ratio CC50/EC50
# [48] = Cytotoxicity against human HG23 cells infected with Norovirus Genogroup 1; type: toxicity, cell-based
# [49] = Selectivity index, ratio of CC50 for cytotoxicity against MDCK cells infected with influenza A virus California/7/2009(H1N1) to EC50 for antiviral activity against influenza A virus California/7/2009(H1N1) infected in MDCK cells; type: toxicity, cell-based; conditions: dog; read-out: Ratio CC50/EC50
# [50] = test system: Yellow fever virus; assay: Antiviral activity against Yellow fever virus YFV 17D infected in human Huh-7 cells; type: functional, organism-based
# [51] = test system: West Nile virus; assay: Antiviral activity against West Nile virus Kern 515 infected in African green monkey Vero 76 cells; type: functional, organism-based
# [52] = Cytotoxicity against MDCK cells infected with influenza A virus California/7/2009(H1N1); type: toxicity, cell-based, Canis lupus familiaris; conditions: dog
# [53] = Selectivity index, ratio of CC50 for cytotoxicity against human HG23 cells infected with Norovirus Genogroup 1 to EC50 for antiviral activity against Norovirus Genogroup 1 infected in human HG23 cells; type: toxicity, cell-based; conditions: read-out: Ratio CC50/EC50
# [54] = test system: Marburgvirus; assay: Antiviral activity against Marburgvirus Angola infected in African green monkey Vero cells; type: functional, organism-based; conditions: Orthomarburgvirus
# [55] = Cytotoxicity against African green monkey Vero cells infected with Marburgvirus Angola; type: toxicity, cell-based; conditions: chlorocebus sabaeus
# [56] = test system: Influenza A virus; assay: Antiviral activity against influenza A virus California/7/2009(H1N1) infected in MDCK cells; type: functional, organism-based
# [57] = test system: Enterovirus A71; assay: Antiviral activity against Human enterovirus 71 Tainan/4643/98 infected in African green monkey Vero 76 cells; type: functional, organism-based
compound,measurement,setting,value
Nc1ccn([C@@H]2CS[C@H](CO)O2)c(=O)n1 [LAMIVUDINE],pEC50,[1],7.70
same,selectivity ratio,[2],> 99
same,CC50,[3],> 2 µM
Nc1nc(F)cc2c1ncn2C1=C[C@H](CO)[C@@H](O)[C@H]1O,selectivity ratio,[4],19
same,Activity,[5],inactive
same,CC50,[6],50 µM
same,selectivity ratio,[7],320
same,Activity,[8],inactive
same,Activity,[9],inactive
same,Activity,[10],inactive
same,pEC50,[11],5.48
same,Activity,[12],inactive
same,pEC50,[13],5.59
same,pEC50,[14],6.44
same,Activity,[15],inactive
same,Activity,[16],inactive
same,pEC50,[17],6.41
same,CC50,[18],114 µM
same,pEC50,[1],6.37
same,selectivity ratio,[19],91
same,pEC50,[20],5.07
same,CC50,[21],75 µM
same,CC50,[22],36 µM
same,Activity,[23],inactive
same,selectivity ratio,[24],14
same,pEC50,[25],4.66
same,selectivity ratio,[26],5.8
same,pEC50,[27],4.97
same,CC50,[28],114 µM
same,Activity,[29],inactive
same,selectivity ratio,[2],113
same,selectivity ratio,[30],7
same,CC50,[3],48.2 µM
same,Activity,[31],inactive
same,pEC50,[32],4.48
same,CC50,[33],46 µM
same,CC50,[34],132 µM
same,CC50,[35],50 µM
same,selectivity ratio,[36],4
same,selectivity ratio,[37],5.2
Nc1ncc(F)c2c1ncn2[C@@H]1C=C(CO)[C@@H](O)[C@H]1O,Activity,[38],Active
same,Activity,[39],Active
same,Activity,[40],Active
same,Activity,[41],Active
Nc1ncc(F)c2c1ncn2C1=C[C@H](CO)[C@@H](O)[C@H]1O,pEC50,[42],> 7.00
same,Activity,[5],Active
same,pEC50,[43],6.19
same,selectivity ratio,[44],> 1000
same,Activity,[8],Active
same,Activity,[45],Active
same,CC50,[46],> 100 µM
same,selectivity ratio,[47],> 538
same,CC50,[48],> 357 µM
same,selectivity ratio,[49],> 1000
same,Activity,[16],inactive
same,pEC50,[1],5.89
same,Activity,[50],inactive
same,Activity,[23],inactive
same,Activity,[51],inactive
same,Activity,[29],Active
same,selectivity ratio,[2],> 2760
same,CC50,[52],> 357 µM
same,selectivity ratio,[53],> 2760
same,pEC50,[54],> 7.00
same,CC50,[3],> 357 µM
same,CC50,[55],> 100 µM
same,Activity,[31],inactive
same,pEC50,[56],> 6.44
same,Activity,[57],Active
